From patent US20230157302A1, “METHODS FOR […] MYCOTOXIN PRODUCTION” (Institut National de Recherche Pour L'Agriculture, …, priority 2020, published 2023)
Entries after “also recorded” stand apart in the source; their conditions may differ.

Assays:
[1] = system: F. graminearum CBS 185.32; assay type: cell-based, Fusarium graminearum
[2] = system: F. graminearum CBS 185.32; assay type: cell-based, Fusarium graminearum; remark: listed apart in the source
[3] = system: Fusarium culmorum and Fusarium graminearum; details: cited from earlier work

Substance | fungal growth / dry fungal biomass (antifungal activity) [1] | 15-ADON production [2] | DON production [2] | other results
C G N F L K R T C I C V K T (CGNFLKRTCICVKT) [TickCore3-K14T] | strong antifungal activity only at 50 μM |  |  | 
C G N F L T R T C I C V K K (CGNFLTRTCICVKK) [TickCore3-K6T] | no antifungal activity below the concentration at 50 μM |  |  | inhibition of TCTB mycotoxin production (DON and 15-ADON together) [2]: reduction in the ability to inhibit TCTB production is particularly pronounced
GGYYCPFRQDKCHRHCRSFGRKAGYCGNFLKRTCICVKK (DefMT3) [tick defensin, synthesized by SPPS] |  | shows inhibitory activity | shows inhibitory activity | antibacterial and antifungal activity [3]: antibacterial and antifungal activity
C(CH3)GNFLKRTC(CH3)IC(CH3)VKK [TickCore3-CH3-123] |  | significantly less | significantly less | inhibition of TCTB mycotoxin production (DON and 15-ADON together) [2]: little effect on the inhibitory effect affecting TCTB production
CGNFLKRTCIC(CH3)VKK [TickCore3-CH3-3 Ox] | no effect on fungal growth at any of the concentrations tested | significant increase | significant increase | 
C(CH3)GNFLKRTCRICVKK [TickCore3-CH3-1 Ox] | no effect on fungal growth at any of the concentrations tested |  |  | 15-ADON levels [2]: significant reduction; DON levels [2]: significant reduction
CGNFLKRTC(CH3)ICVKK [TickCore3-CH3-2 Ox] | no effect on fungal growth at any of the concentrations tested | did not change significantly | significant increase | 
C G N F L K T T C I C V K K (CGNFLKTTCICVKK) [TickCore3-R7T] | strong antifungal activity only at 50 μM |  |  | 
DefMT6: tick defensin described in Tonk et al., 2015 (GFGCPLNQGACHNHCRSIKRRGGYCSGIIKQTCTCYRK; DefMT6) [reference compound] |  |  |  | antibacterial and antifungal activity [3]: antibacterial and antifungal activity
C G N F L K R T C I C V T K (CGNFLKRTCICVTK) [TickCore3-K13T] | strong antifungal activity only at 50 μM |  |  | 
C G N F L K R T C I C V K K (CGNFLKRTCICVKK) [TickCore3, conserved linear gamma core moiety of the tick defensin DefMT3] | significantly inhibited fungal growth at all the concentrations tested | non-detectable levels; also recorded: residual levels | non-detectable levels | inhibition of TCTB mycotoxin production (DON and 15-ADON together) [2]: inhibits the production of category B trichothecenes
